According to a compilation of properties of binary mixtures (doi:10.1016/j.molliq.2016.09.008):

Experiment: xn = mol fraction of the nth substance listed
Conditions: 298.15 K, 101 kPa

C[N+](=O)[O-] + CC[NH3+].O=[N+]([O-])[O-]
electrical conductivity (x1 = 1): 0.0031 S/m | viscosity (x1 = 1): 0.637 mPa·s

CC[NH3+].O=[N+]([O-])[O-] + C[N+](=O)[O-]
electrical conductivity (x1 = 0.0034): 0.0549 S/m | viscosity (x1 = 0.0034): 0.652 mPa·s | electrical conductivity (x1 = 0.0062): 0.0721 S/m | viscosity (x1 = 0.0062): 0.662 mPa·s | electrical conductivity (x1 = 0.0112): 0.0945 S/m | viscosity (x1 = 0.0112): 0.679 mPa·s | electrical conductivity (x1 = 0.0129): 0.1 S/m | viscosity (x1 = 0.0129): 0.683 mPa·s | electrical conductivity (x2 = 0.0498): 2.34 S/m | viscosity (x2 = 0.0498): 34.1 mPa·s | electrical conductivity (x2 = 0.1048): 2.4 S/m | viscosity (x2 = 0.1048): 31.5 mPa·s | electrical conductivity (x2 = 0.2032): 2.56 S/m | viscosity (x2 = 0.2032): 23.9 mPa·s | electrical conductivity (x2 = 0.3007): 2.7 S/m | viscosity (x2 = 0.3007): 20.3 mPa·s | electrical conductivity (x2 = 0.3874): 2.94 S/m | viscosity (x2 = 0.3874): 15.3 mPa·s | electrical conductivity (x2 = 0.4983): 2.71 S/m | viscosity (x2 = 0.4983): 8.52 mPa·s
